In BindingDB's records for patent US20250115598 (Anaxis Pharma, 2025) one finds Kd data, which are given here for seven compounds.

As a reminder, the Kd is the free concentration of one partner at which half of the binding sites on the other are occupied at equilibrium, for simple one-to-one binding. Lower therefore signals tighter binding.

What all share (assay): In Vitro Assay
The target in assay [1] is T1, Mixed lineage kinase domain-like protein (Homo sapiens, UniProt Q8NB16).
T1 sequence (Q8NB16 whole entry): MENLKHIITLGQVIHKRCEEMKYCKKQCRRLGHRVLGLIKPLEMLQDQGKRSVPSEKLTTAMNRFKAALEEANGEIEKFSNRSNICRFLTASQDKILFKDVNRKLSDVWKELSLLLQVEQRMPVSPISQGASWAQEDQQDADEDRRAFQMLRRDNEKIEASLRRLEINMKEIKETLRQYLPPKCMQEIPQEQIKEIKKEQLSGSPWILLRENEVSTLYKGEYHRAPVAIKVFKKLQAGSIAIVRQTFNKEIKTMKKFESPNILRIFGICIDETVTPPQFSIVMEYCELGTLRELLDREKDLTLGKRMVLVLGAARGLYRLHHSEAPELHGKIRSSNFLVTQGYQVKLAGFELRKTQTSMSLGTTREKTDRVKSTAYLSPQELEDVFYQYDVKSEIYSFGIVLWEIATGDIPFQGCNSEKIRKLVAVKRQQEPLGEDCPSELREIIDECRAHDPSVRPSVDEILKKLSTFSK
As to the method: (§1) Binding affinity of the test compounds for human MLKL (full length), mouse MLKL (full length), human RIPK1 and human RIPK3 was determined using the KINOMEscan™ technology developed by DiscoverX (USA; http://www.discoverx.com). The assay was conducted according to manufacturer instructions.

The target of assay [2] is T2, Receptor-interacting serine/threonine-protein kinase 1 (Homo sapiens, UniProt Q13546).
T2 sequence (Q13546 whole entry): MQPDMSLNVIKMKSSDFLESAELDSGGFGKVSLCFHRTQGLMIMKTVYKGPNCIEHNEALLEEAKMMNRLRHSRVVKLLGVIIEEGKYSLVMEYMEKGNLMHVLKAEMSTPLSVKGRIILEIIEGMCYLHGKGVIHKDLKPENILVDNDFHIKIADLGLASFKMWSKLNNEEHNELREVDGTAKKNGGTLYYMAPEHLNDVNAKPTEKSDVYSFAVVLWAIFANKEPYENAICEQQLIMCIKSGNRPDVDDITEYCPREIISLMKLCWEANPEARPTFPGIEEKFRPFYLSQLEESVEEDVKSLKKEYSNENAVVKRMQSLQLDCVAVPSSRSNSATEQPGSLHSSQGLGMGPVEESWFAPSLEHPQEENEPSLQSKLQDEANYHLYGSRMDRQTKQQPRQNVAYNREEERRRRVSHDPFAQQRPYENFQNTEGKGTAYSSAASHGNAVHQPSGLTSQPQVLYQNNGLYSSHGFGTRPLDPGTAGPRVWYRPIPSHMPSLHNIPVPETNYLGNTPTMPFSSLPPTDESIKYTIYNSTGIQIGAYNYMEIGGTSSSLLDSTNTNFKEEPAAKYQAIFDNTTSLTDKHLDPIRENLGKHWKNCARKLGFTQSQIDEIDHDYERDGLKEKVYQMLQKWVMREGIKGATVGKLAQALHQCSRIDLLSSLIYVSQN
As to the method: as §1

Assay [3] has as its target Receptor-interacting serine/threonine-protein kinase 3 (Homo sapiens, UniProt Q9Y572). As to the method: as §1

Sequence of Receptor-interacting serine/threonine-protein kinase 3 (Q9Y572 whole entry): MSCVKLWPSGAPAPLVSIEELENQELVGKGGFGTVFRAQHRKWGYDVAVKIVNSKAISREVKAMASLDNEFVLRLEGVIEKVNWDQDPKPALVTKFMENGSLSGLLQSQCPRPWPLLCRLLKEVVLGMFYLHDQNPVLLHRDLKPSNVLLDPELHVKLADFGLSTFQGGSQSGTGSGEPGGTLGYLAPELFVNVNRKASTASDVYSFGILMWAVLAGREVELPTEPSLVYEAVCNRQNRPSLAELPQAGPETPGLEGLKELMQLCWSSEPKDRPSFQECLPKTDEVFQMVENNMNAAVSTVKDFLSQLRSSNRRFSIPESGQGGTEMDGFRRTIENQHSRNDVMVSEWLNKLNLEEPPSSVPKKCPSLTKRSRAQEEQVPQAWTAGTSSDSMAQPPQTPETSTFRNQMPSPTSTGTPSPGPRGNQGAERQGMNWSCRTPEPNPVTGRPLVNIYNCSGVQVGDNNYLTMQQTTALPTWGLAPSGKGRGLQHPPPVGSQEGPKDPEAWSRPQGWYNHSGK

In turn, `C[C@H](Oc1cc(-c2nn(C)c3c(-c4cnn(CCC(F)(F)F)c4)cnc(N)c23)ccc1NS(=O)(=O)C(F)F)c1ccc(F)cc1` [US20250115598, Compound 113] came in with a Kd in assay [1] of less than 50 nM.

For the compound `C[C@H](Oc1cc(-c2nn(C)c3c(C4=CCCN(C)C4)cnc(N)c23)ccc1NS(=O)(=O)C(F)F)c1ccc(F)cc1` [US20250115598, Compound 55], the Kd in assay [2] and in assay [3] was greater than 2500 nM each time.

Turning to `Cn1nc(-c2ccc(NS(=O)(=O)C(F)F)c(OCc3ccc(F)cc3)c2)c2c(N)ncc(-c3ccncc3)c21` [US20250115598, Compound 14], the Kd in assay [2] and in assay [3] was greater than 2500 nM throughout.

Take `C[C@H](Oc1cc(-c2nn(C)c3c(-c4cnn(C5CCN(C)C(C(F)F)C5)c4)cnc(N)c23)ccc1NS(=O)(=O)C(F)F)c1ccc(F)cc1` (stereo partly drawn) [US20250115598, Compound 158]: the Kd in assay [2] and in assay [3] was greater than 2500 nM each time.

In the case of `Nc1ncc(-c2cnn(C3CCOCC3)c2)c2occ(-c3ccc(NS(=O)(=O)C(F)F)c(OCc4ccc(F)cc4)c3)c12` [US20250115598, Compound 5], the Kd in assay [2] and in assay [3] was greater than 2500 nM in each case.

As for `COc1ccc([C@H](C)Oc2cc(-c3nn(C)c4c(-c5cnn(C6CCOCC6)c5)cnc(N)c34)ccc2NS(=O)(=O)C(F)F)cc1` [US20250115598, Compound 129], the Kd in assay [2] and in assay [3] was greater than 2500 nM in each case.

For the compound `C[C@H](Oc1cc(-c2nn(C)c3c(-c4cnn(C5CCOCC5)c4)cnc(N)c23)ccc1NS(=O)(=O)C(F)F)c1ccc(F)cc1` [US20250115598, Compound 135], the Kd in assay [2] and in assay [3] was greater than 2500 nM each time.
